# Where a name gives a salt, the structure may show the parent alone.
# Test system: IRE1-XBP1s (HEK293 T-REx cells stably expressing the XBP1-RLuc splicing reporter)
# Experiment: IRE1-XBP1s activation Assay (XBP1-RLuc splicing reporter, luminescence relative to thapsigargin, with or without IRE1 inhibitor 4μ8C)
# Format: cell-based
# Conditions: 18 h, compound 10 μM, luminescence as percentage signal relative to thapsigargin (Tg) (500 nM, 18 h)
# Method: IRE1-XBP1s activation Assay: HEK293 T-REx cells stably expressing the XBP1-RLuc splicing reporter were treated with an IRE1-XBP1s activator provided herein (10 μM) in the presence or absence of the IRE1 active site inhibitor 4μ8C (32 μM) for 18 h. Luminescence was shown as the percentage signal relative to thapsigargin (Tg) (500 nM, 18 h).
row,Compound,activation at 10 µM [%]
1,"Cc1ccc(OC2(C)CCCN(C(=O)Cn3cc(NC(=O)CCOc4ccccc4F)cn3)C2)c(N)c1 (stereo not shown) [Compound 69, N-(1-(2-(3-(2-amino-4-methylphenoxy)-3-methylpiperidin-1-yl)-2-oxoethyl)-1H-pyrazol-4-yl)-3-(2-fluorophenoxy)propanamide]",< 30
2,CN(C(=O)Cn1cc(NC(=O)CCOc2ccccc2)cn1)C12CCC(Oc3ccc(C(F)(F)F)cc3)(CC1)CC2 [Compound 70],≥ 50
3,Cc1ccc(O[C@H]2CCCN(C(=O)Cn3cc(NC(=O)CCOc4ccccc4F)cn3)C2)cc1 [Compound 71],≥ 50
4,Cc1ccc(O[C@@H]2CCCN(C(=O)Cn3cc(NC(=O)CCOc4ccccc4F)cn3)C2)cc1 [Compound 72],≥ 50
5,Cc1ccc(OCCN(C)C(=O)Cn2cc(NC(=O)C3CN(C(=O)OC(C)(C)C)c4ccccc4O3)cn2)cc1 (stereo not shown) [Compound 73],< 30
6,Cc1ccc(OC2CCCN(C(=O)Cn3cc(NC(=O)CCOc4ccccc4-c4ccccc4)cn3)C2)cc1 (stereo not shown) [Compound 74],< 30
7,Cc1ccc(OC2CCCN(C(=O)Cn3cc(NC(=O)CCOc4cncc(F)c4)cn3)C2)cc1 (stereo not shown) [Compound 75],< 30
8,Cc1ccc(OC2(C)CCCN(C(=O)Cn3cc(NC(=O)CCOc4ccccc4F)cn3)C2)cc1 (stereo not shown) [Compound 77],30 to 50
9,CC1(Oc2ccc(Br)cc2)CCCN(C(=O)Cn2cc(NC(=O)CCOc3ccccc3F)cn2)C1 (stereo not shown) [Compound 78],< 30
10,Cc1ccc(OC2CCCN(C(=O)Cn3cc(NC(=O)CCOc4cc(Cl)ccc4F)cn3)C2)cc1 (stereo not shown) [Compound 80],≥ 50
11,Cc1ccc(OC2CCCN(C(=O)Cn3cc(NC(=O)CCOc4ccccc4C(F)(F)F)cn3)C2)cc1 (stereo not shown) [Compound 83],< 30
12,Cc1ccc(OCCN(C)C(=O)Cn2cc(NC(=O)CCN3CCOc4ccccc43)cn2)cc1 [Compound 85],< 30
13,Cc1ccc(OC2CCCN(C(=O)Cn3cc(NC(=O)CCOc4c(F)cccc4F)cn3)C2)cc1 (stereo not shown) [Compound 86],30 to 50
14,Cc1ccc(OC2CCCN(C(=O)Cn3cc(NC(=O)CCOc4cncc(C(F)(F)F)c4)cn3)C2)cc1 (stereo not shown) [Compound 89],< 30
15,"Cc1ccc(OCCN(C)C(=O)Cn2cc(NC(=O)C3CNc4ncccc4O3)cn2)cc1 (stereo not shown) [Compound 90, N-(1-(2-(methyl(2-(p-tolyloxy)ethyl)amino)-2-oxoethyl)-1H-pyrazol-4-yl)-3,4-dihydro-2H-pyrido[3,2-b][1,4]oxazine-2-carboxamide hydrochloride]",30 to 50
16,Cc1ccc(OC2CCCN(C(=O)Cn3cc(NC(=O)CCOc4cccnc4C(F)(F)F)cn3)C2)cc1 (stereo not shown) [Compound 91],< 30
17,Cc1ccc(O[C@@H]2CCCN(C(=O)Cn3cc(NC(=O)CCOc4ccc(F)cc4C)cn3)C2)cc1 [Compound 93],≥ 50
18,Cc1ccc(O[C@H]2CCCN(C(=O)Cn3cc(NC(=O)CCOc4ccc(F)cc4C)cn3)C2)cc1 [Compound 94],30 to 50
19,"Cc1ccc(OCCN(C)C(=O)Cn2cc(NC(=O)CC3CNc4cc(F)ccc4O3)cn2)cc1 (stereo not shown) [Compound 96, 2-(4-(2-(6-fluoro-3,4-dihydro-2H-benzo[b][1,4]oxazin-2-yl)acetamido)-1H-pyrazol-1-yl)-N-methyl-N-(2-(p-tolyloxy)ethyl)acetamide]",30 to 50
20,Cc1ccc(OCCN(C)C(=O)Cn2cc(NC(=O)CC3CN(C(=O)OC(C)(C)C)c4cc(F)ccc4O3)cn2)cc1 (stereo not shown) [Compound 97],≥ 50
21,Cc1ccc(OC2CCCN(C(=O)Cn3cc(NC(=O)CCOc4ccc(F)cc4C)cn3)C2)cc1 (stereo not shown) [Compound 98],≥ 50
22,"Cc1ccc(OC2CCCN(C(=O)Cn3cc(NC(=O)CCC4(c5ccccc5F)CC4)cn3)C2)cc1 (stereo not shown) [Compound 100, 3-(1-(2-fluorophenyl)cyclopropyl)-N-(1-(2-oxo-2-(3-(p-tolyloxy)piperidin-1-yl)ethyl)-1H-pyrazol-4-yl)propanamide]",< 30
23,Cc1ccc(OCCN(C)C(=O)Cn2cc(NC(=O)C3CCCC(Oc4ccncc4)C3)cn2)cc1 (stereo not shown) [Compound 101],< 30

row,Compound,activation at 10 µM [%]
1,Cc1ccc(OCCN(C)C(=O)Cn2cc(NC(=O)C3CCC(Oc4ccncc4)CC3)cn2)cc1 (stereo not shown) [Compound 102],≥ 50
2,Cc1ccc(OCCN(C)C(=O)Cn2cc(NC(=O)C3CCC(Oc4cccnc4)CC3)cn2)cc1 (stereo not shown) [Compound 103],< 30
3,Cc1ccc(OCCN(C)C(=O)Cn2cc(NC(=O)C3CCC(Oc4ccncc4)C3)cn2)cc1 (stereo not shown) [Compound 104],≥ 50
4,Cc1ccc(O[C@H]2CCCN(C(=O)Cn3cc(NC(=O)C4CC(Oc5ccccn5)C4)cn3)C2)cc1 (stereo partly shown) [Compound 105],30 to 50
5,Cc1ccc(O[C@H]2CCCN(C(=O)Cn3cc(NC(=O)[C@H]4C[C@H](Oc5ccccn5)C4)cn3)C2)cc1 [Compound 106],≥ 50
6,Cc1ccc(O[C@H]2CCCN(C(=O)Cn3cc(NC(=O)C4CC(Oc5cccnc5N)C4)cn3)C2)cc1 (stereo partly shown) [Compound 107],30 to 50
7,O=C(Nc1cnn(CC(=O)N2CCC[C@H](Oc3ccc(C(F)(F)F)cn3)C2)c1)C1CC(Oc2ccncc2)C1 (stereo partly shown) [Compound 108],< 30
8,O=C(Cn1cc(NC(=O)[C@H]2C[C@H](Oc3ccccc3)C2)cn1)N1CCC[C@H](Oc2ccc(C(F)(F)F)cn2)C1 [Compound 109],< 30
9,Cc1ccc(OCCN(C)C(=O)Cn2cc(NC(=O)CC3CCc4cc(F)ccc4O3)cn2)cc1 (stereo not shown) [Compound 110],< 30
10,Cc1ccc(OCCN(C)C(=O)Cn2cc(NC(=O)c3cnccc3NC(=O)OC(C)(C)C)cn2)cc1 [Compound 111],≥ 50
11,Cc1ccc(OCCN(C)C(=O)Cn2cc(NC(=O)c3cnccc3N)cn2)cc1 [Compound 112],< 30
12,COc1ccc(N(C)C(=O)Cn2cc(NC(=O)CCOc3ccccc3)cn2)cc1 [Compound 113],< 30
13,O=C(CCOc1ccccc1)Nc1cnn(CC(=O)Nc2ccc(OC(F)F)cc2)c1 [Compound 114],30 to 50
14,Cc1ccc(C(=O)c2ccc(N(C)C(=O)Cn3cc(NC(=O)CCOc4ccccc4)cn3)cn2)cc1 [Compound 115],< 30
15,Cc1ccc(Oc2cccc(N(C)C(=O)Cn3cc(NC(=O)CCOc4ccccc4)cn3)c2)cc1 [Compound 116],< 30
16,Cc1ccc(OC2CCCCN(C(=O)Cn3cc(NC(=O)CCOc4ccccc4)cn3)C2)cc1 (stereo not shown) [Compound 117],≥ 50
17,Cc1ccc(Oc2ccc(N(C)C(=O)Cn3cc(NC(=O)CCOc4ccccc4)cn3)cc2)cc1 [Compound 118],< 30
18,CN(C(=O)Cn1cc(NC(=O)CCOc2ccccc2)cn1)c1ccc(OC2CCC(C)(C)CC2)c(F)c1 [Compound 119],< 30
19,Cc1ccc(O[C@H]2CCCN(C(=O)Cn3cc(NC(=O)C4CNc5ccccc5O4)cn3)C2)cc1 (stereo partly shown) [Compound 120],< 30
20,Cc1ccc(O[C@H]2CCCN(C(=O)Cn3cc(NC(=O)C4CN(C(=O)OC(C)(C)C)c5ccccc5O4)cn3)C2)cc1 (stereo partly shown) [Compound 121],< 30
21,Cc1ccc(O[C@H]2CCCN(C(=O)Cn3cc(NC(=O)[C@H]4CNc5ccccc5O4)cn3)C2)cc1 [Compound 122],< 30
22,Cc1ccc(O[C@H]2CCCN(C(=O)Cn3cc(NC(=O)[C@@H]4CNc5ccccc5O4)cn3)C2)cc1 [Compound 123],< 30
23,Cc1ccc(OCCN(C)C(=O)Cn2cc(NC(=O)C3Oc4cccc(C(C)C)c4O3)cn2)cc1 (stereo not shown) [Compound 124],< 30

# Reference: patent US20260193244A1 (Protego Biopharma, Inc., priority 2022, published 2026)
